Results published in PubChem BioAssay AID179 (DTP/NCI, 2004).
“And” between values parts separate entries of the source, which are not always exact repeats. Equal values may be shown once. The source made the active and inactive calls.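 How the source made its calls: active means compounds giving half or more protection of infected cells from virus-caused growth loss, again on retest; inactive means the rest.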

Tested on: CEM cells HIV-1 protection, formazan growth assay
Experiment: NCI AIDS Antiviral Assay
Conditions: for IC50: measured here: growth of uninfected CEM cells
Summary of the method: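 Human CEM cells, uninfected and HIV-1-infected, exposed to five drug concentrations; growth measured by soluble formazan assay and scored as percent protection from infection, with protecting compounds retested.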

Structure (SMILES) | EC50 [µM] | IC50 | outcome
CC(C)N1CSC(=S)N(Cc2ccccc2)C1 | > 37.2 | 32.4 µM | 
COc1ccc(C2SC(N)=Nc3c2c(C)nn3C(=O)c2ccncc2)cc1 (stereo not given) | > 200 | 110 µM | 
COc1ccc(/C=C(/C(=O)c2ccccc2)c2ccccc2)cc1 | > 8.71 | > 8.71 µM | 
O=c1c2cccnc2ncn1CCCN1CCCCC1 |  |  | inactive
O=C(/C=C/c1cccs1)c1ccsc1 | > 200 | 11.7 µM | 
Clc1cccc(-c2ccc[nH]2)c1 | > 200 | > 200 µM | 
CCN(CCO)CCCC(C)Nc1ccnc2cc(Cl)ccc12 (stereo not given) | > 200 | 64.6 µM | 
O=C(NN=C1CCN(Cc2ccccc2)CC1)C(O)(c1ccccc1)c1ccccc1 | > 200 | > 200 µM | 
CC(=O)n1[nH]c(=O)n(-c2ccc(Cl)cc2)c1=O | > 200 | > 200 µM | 
CN(C)CCCNC(=O)c1nc(NC(=O)c2nc(NC(=O)c3nc(NC(=O)c4ccc(C(=O)Nc5cn(C)c(C(=O)Nc6cn(C)c(C(=O)Nc7cn(C)c(C(=O)NCCCN(C)C)n7)n6)n5)nc4)cn3C)cn2C)cn1C | > 50.1 | > 50.1 µM | 
O=C1c2c([nH]ccc2=O)-c2nccc3c2c1nc1ccccc13 | > 2 | 0.603 µM | 
COC(OC)/C(C)=N/NC1=Nc2ccc(Cl)cc2C(c2ccccc2Cl)=NC1 | > 12.3 | > 12.3 µM | 
CC(=O)OCC1(C)C(OC(C)=O)CCC2(C)C(CC(OC(C)=O)C3=CCOC3=O)C(O)(CO)CCC12 (stereo not given) |  |  | inactive
Cc1ccc(S(=O)(=O)N/N=C(/CC(=O)c2c(C)n([O-])c3ccccc3[n+]2=O)C(=O)Nc2ccccc2C)cc1 | > 33.1 | > 33.1 µM | 
Nc1c(N=Nc2ccc(CCc3ccc(N=Nc4cc(S(=O)(=O)O)c5cccc(S(=O)(=O)O)c5c4N)cc3S(=O)(=O)O)c(S(=O)(=O)O)c2)cc(S(=O)(=O)O)c2cccc(S(=O)(=O)O)c12 | 6.31 | 148 µM | 
COc1c(C)c(C/C=C(\C)CCCCO)c(OC)c2ccccc12 | > 200 | 22.9 µM | 
O=C(O)CN1CCNCCN(CC(=O)O)CCN(CC(=O)O)CCNCC1 | > 200 | 178 µM | 
O=c1ccn([C@@H]2O[C@@H]3COC(c4c(F)cccc4Cl)N(O)[C@@H]3C2O)c(=O)[nH]1 (stereo not given in full) | > 200 | > 200 µM | 
N#Cc1ccccc1NC(=O)C(=O)C1NC(=S)NC1=O (stereo not given) |  |  | inactive
CCCNc1nc2c(c(=O)n1-c1ccccc1)C=C(C(=O)OC)CCN2S(=O)(=O)c1ccc(C)cc1 | > 14.1 | > 14.1 µM | 
O=[N+]([O-])c1ccc(CSSCc2ccc([N+](=O)[O-])cc2)cc1 | > 200 | 17.8 µM | 

Structure (SMILES) | EC50 [µM] | IC50 | outcome
O=c1c2cc3c(=O)n(-c4ccccc4Cl)c(=O)c3cc2c(=O)n1-c1ccccc1Cl | > 40.7 | > 40.7 µM | 
O=C(O)c1ccccc1CC1Cc2ccccc2C1=O (stereo not given) | > 200 | > 200 µM | 
CCOC(=O)c1cc(-c2ccc([N+](=O)[O-])cc2)c([N+](=O)[O-])[nH]1 | > 200 | 7.94 µM | 
COC(=O)[n+]1cc2c3cccc[n+]3c(N(C)C)n2c2ccccc21 | > 200 | 16.6 µM | 
Cc1ccc2c(c1C)C(=O)C1(Cc3cc4c(cc3C1=O)CCC4)C2 (stereo not given) | > 100 | > 100 µM | 
COc1c(OCC(O)CN2CCCCC2)c2c(C)coc2c2ccoc12 (stereo not given) | > 631 | 35.5 µM | 
Cc1cccc2c1c(=O)c1c(O)c3c(cc1n2C)OC(C)(C)C=C3 | > 200 | 87.1 µM | 
N#Cc1nc(CCN2C(=O)c3ccccc3C2=O)oc1N | > 200 | > 200 µM | 
c1cc(-c2cn3c(n2)SCC3)ccn1 | > 437 | 182 µM | 
Oc1cc2c3c(c1)CCCN3CCC2 | > 200 | 195 µM | 
O=c1c2ccccc2oc2cc3c(c(O)c12)CCCC3 | > 200 | > 200 µM | 
CN(C)CC/C(=N\Nc1c(Cl)cccc1Cl)c1ccccc1 |  |  | inactive
Nc1scc2[nH]c3ccccc3[n+]12 | > 200 | 15.5 µM | 
COc1cccc(C2c3cc4c(cc3OC(NNc3ccccc3)C2C)OCO4)c1OC (stereo not given) | > 200 | 8.13 µM | 
Cn1nc2c(c(Cl)c1=O)Nc1ccccc1O2 | > 200 | > 200 µM | 
O=C(Nc1ccc([N+](=O)[O-])cc1C(=O)O)c1ccc([N+](=O)[O-])cc1 |  |  | inactive
CCCCCc1cc2cc(O)cc(Oc3c(O)cc(O)c(C(=O)O)c3CCCCC)c2c(=O)o1 | > 200 | 34.7 µM | 
O=C(CN1CCCCC1)N1CCc2c([nH]c3ccccc23)C1c1cccnc1 (stereo not given) | > 26.9 | > 26.9 µM | 
CC(C)c1cc2c(O)c(c1)Cc1cc(C(C)C)cc(c1O)Cc1cc(C(C)C)cc(c1O)Cc1cc(C(C)C)cc(c1O)Cc1cc(C(C)C)cc(c1O)Cc1cc(C(C)C)cc(c1O)C2 | > 14.5 | > 14.5 µM | 
O=C1c2ccccc2C(=O)N1CC[P+](c1ccccc1)(c1ccccc1)c1ccccc1 | > 200 | > 200 µM and 107 µM | 
CCCCC[C@H]1CCCCCCCCCC(=O)OC2C(O[C@@H]3OC(C)[C@H](OC(=O)[C@@H](C)CC)C(O[C@@H]4OC(C)[C@H](O)C(O)[C@@H]4O)[C@@H]3OC(=O)[C@H](C)CC)[C@H](OC3C(O)[C@@H](O)C(C)O[C@H]3O1)OC(CO)[C@H]2O (stereo not given in full) | > 200 | 11.2 µM | 

Structure (SMILES) | EC50 [µM] | IC50 | outcome
COc1c(C(C)C)cc(O)c2c1CCC1C(C)=C(C(=O)O)CCC21C (stereo not given) | > 200 | 110 µM | 
Cc1nonc1NC(=O)OCc1ccccc1 | > 112 | > 112 µM | 
CCOC(=O)C(O)(NC(=O)c1ccccc1F)C(F)(F)F (stereo not given) |  |  | inactive
Cc1ccnc(NS(=O)(=O)c2ccc(NC(=O)c3ccc4nc5ccccc5c(Nc5ccc(S(=O)(=O)Nc6nccc(C)n6)cc5)c4c3)cc2)n1 | > 200 | 83.2 µM | 
NC(=Nc1ccccc1)N/N=C/c1c[nH]c2ccccc12 | > 380 | 0.224 µM | 
CC(=O)OCC1OC(OC(C)=O)C(NC#N)C(OC(C)=O)C1OC(C)=O (stereo not given) | > 676 | 61.7 µM | 
COc1ccc2c(=O)c(O)c(-c3ccc(OC)c(OC)c3)oc2c1 | > 200 | > 200 µM | 
O=C1C=CC2=C3c4cc(O)c(O)cc4CC3(O)COC2=C1O (stereo not given) | > 45.7 | 40.7 µM | 
CCCCNC(=O)C1C(=O)N(CCCC)C(=O)/C1=N\N (stereo not given) | > 25.7 | > 25.7 µM | 
CN1CCN(c2cc3nc(-c4ccc(Cl)cc4)[nH]c3cc2F)CC1 | > 200 | 11.5 µM | 
O=c1[nH]c2nc3ccccc3c(=O)n2/c1=C/c1ccco1 | > 200 | > 200 µM | 
O=C(NC1C(=O)NNC1c1cccc([N+](=O)[O-])c1)c1ccccc1 (stereo not given) | > 288 | > 288 µM | 
c1ccc(CN2COc3c(c4c(c5ccccc35)OCN(Cc3ccccc3)C4)C2)cc1 | > 61.7 | > 61.7 µM | 
O=C(O)c1ccccc1S | > 200 | > 200 µM | 
N=C(N)Cc1ccc(NC(=O)c2ccc(C(=O)Nc3ccc(CC(=N)N)cc3)cc2)cc1 | > 70.8 | 22.4 µM | 
O=C(NNC(=S)Nc1ccccc1)c1cc(-c2ccccc2)nc2ccccc12 | > 200 | 21.9 µM | 
CC1CC2C3CC(F)C4=CC(=O)C=CC4(C)C3(F)C(O)CC2(C)C1(O)C(=O)CO (stereo not given) |  |  | inactive
OC1CN=C2C=CC=CN2C1 (stereo not given) | > 200 | > 200 µM | 
CC(C)(C)[Si](C)(C)OCC1OC(n2ccc(=O)[nH]c2=O)C(O[Si](C)(C)C(C)(C)C)[C@@]12N[C@H](C(N)=O)CS2=O (stereo not given in full) | > 200 | 12.3 µM | 
CN(C)c1cc(CNCCc2cnc[nH]2)nc(CNCCc2cnc[nH]2)c1 | > 200 | 12.3 µM | 
COc1ccc2c[n+](C)c3c4cc(OC)c(OC)cc4ccc3c2c1 |  |  | inactive

Structure (SMILES) | EC50 [µM] | IC50 | outcome
CC(=O)SC(SC(C)=O)SC(C)=O | > 209 | 155 µM | 
CC(=O)N(C(C)=O)c1c(N)n(C)c(=O)[nH]c1=O |  |  | inactive
CN(CCO)c1nc2c(c(=O)[nH]1)CCC2 | > 240 | > 240 µM | 
Oc1cccc2cccnc12 | > 1230 | 2.34 µM | inactive
C1=C2/CC[C@H](Sc3ccccc3)C2C2(CCCCC/1)OCCO2 (stereo not given in full) | > 200 | 38.9 µM | 
O=c1[nH]c(Nc2ccccc2)nc2c1ncn2CC(O)CSCCO (stereo not given) | > 200 | > 200 µM | 
O=C1CCC(=O)N1N1C(=O)CCC1=O | > 200 | > 200 µM | 
c1cc2cc3c4c5c(cc6ccc7cc8cc9c%10c8c8c7c6c5c8c5c%10c(c1C9N1CCOCCOCCOCCOCCOCC1)c2c45)C3 (stereo not given) | > 100 | > 100 µM | 
CCOC(=O)C1(Cc2ccccc2)SCCCS1 | > 91.2 | > 91.2 µM | 
NC(=O)OCC(COc1ccc(Cl)cc1)OC(=O)c1cc([N+](=O)[O-])cc([N+](=O)[O-])c1 (stereo not given) | > 562 | 398 µM | 
COc1ccc(Cc2nc3ccccc3s2)cc1OC | > 126 | 13.8 µM | 
CCCCC1C(=O)N2[C@H](OC[C@@H]2C(C)C)O[C@@H]1C (stereo not given in full) | > 977 | 501 µM | 
CC(C)(C)OC(=O)NCC(=O)NC1C/C(=N\O)c2sccc21 (stereo not given) | > 200 | > 200 µM | 
COc1cccc(/C=C2\CCCCCC2=O)c1 | > 200 | 40.7 µM | 
O=c1[nH]c(=O)n(C2CC(O)C(CO)O2)cc1C#Cc1ccc(F)cc1 (stereo not given) | > 724 | > 724 µM | 
COc1cc(N=Nc2cc(NC(C)=O)c(N=Nc3ccc(S(=O)(=O)O)cc3)cc2S(=O)(=O)O)c(C)cc1N=Nc1cc(OC)c(NC(=O)c2ccc(N)cc2)cc1C | 4.57 | 191 µM | 
CCc1cc2c(oc3cc4ccccc4cc32)c(=O)[nH]1 | > 200 | > 200 µM | 
Cc1ccc(NC(=O)C2C(=O)N(c3ccc(C)c(C)c3)C(=O)/C2=N/O)cc1C (stereo not given) | > 19.1 | > 19.1 µM | 
O=C(CCn1[nH]c(=O)c(Cl)c(Cl)c1=O)NNC(=O)C[n+]1ccccc1 | > 589 | > 589 µM | 
OC(Cc1ccc2ccccc2n1)(C(F)(F)F)C(F)(F)F | > 200 | > 200 µM | 
Cc1cc(-c2ccccc2)c2ccc3c(-c4ccccc4)cc(C)nc3c2n1.Cc1cc(-c2ccccc2)c2ccc3c(-c4ccccc4)cc(C)nc3c2n1.O=C1OC(C(O)C[O-])C(O)=C1O.[Cu+] | > 25.1 | 0.708 µM | 
